Target: T1, P2X7 receptor (Homo sapiens, UniProt Q99572)
T1 construct: stably expressing the full length P2X7 receptor; expressed in transfected cells
T1 sequence (Q99572 1-595): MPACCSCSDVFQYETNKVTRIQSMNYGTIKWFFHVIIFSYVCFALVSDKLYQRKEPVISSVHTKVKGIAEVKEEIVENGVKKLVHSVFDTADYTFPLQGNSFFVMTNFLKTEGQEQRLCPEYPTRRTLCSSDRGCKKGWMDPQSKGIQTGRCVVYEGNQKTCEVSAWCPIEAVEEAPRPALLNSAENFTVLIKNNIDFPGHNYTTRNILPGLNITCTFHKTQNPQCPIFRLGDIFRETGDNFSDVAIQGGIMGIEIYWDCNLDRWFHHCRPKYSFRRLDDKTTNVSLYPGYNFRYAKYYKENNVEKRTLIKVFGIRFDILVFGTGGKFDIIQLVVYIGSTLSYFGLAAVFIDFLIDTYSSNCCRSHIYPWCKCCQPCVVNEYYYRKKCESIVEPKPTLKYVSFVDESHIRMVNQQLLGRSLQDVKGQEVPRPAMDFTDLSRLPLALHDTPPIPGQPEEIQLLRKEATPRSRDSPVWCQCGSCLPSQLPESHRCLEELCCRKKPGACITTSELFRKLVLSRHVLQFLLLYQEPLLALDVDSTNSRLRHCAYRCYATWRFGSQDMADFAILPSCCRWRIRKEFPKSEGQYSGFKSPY
Test: Ca++ flux assay (FLIPR) in P2X7-HEK-293 cell line stably expressing the full length P2X7 receptor, Bz-ATP activation
Type: cell-based
Conditions: P2X7-HEK-293 cells; agonist Bz-ATP; fluorescence as total area over 90 seconds; read-out: P2X7 Ca Flux hu IC50
Outline: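 HEK-293 cells stably expressing full-length P2X7 were loaded with Ca++-sensitive dye for 1 h, with compound added during loading. Cells were stimulated with Bz-ATP on FLIPR. Fluorescence was integrated as total area over 90 s, and IC50 was taken as 50% inhibition of the maximal Ca++ response.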

| IC50 | Structure (SMILES) |
| --- | --- |
| 448 nM | Cc1c(Cl)cccc1-n1ccn2c(SCC(=O)c3ccccc3C(F)(F)F)nnc2c1=O [Compound 109, 7-(3-chloro-2-methylphenyl)-3-(2-oxo-2-(2-(trifluoromethyl)phenyl)ethylthio)-[1,2,4]-triazolo[4,3-a]pyrazin-8(7H)-one] |
| 56.9 nM | Cc1c(-n2ccn3c(SCc4ccccc4C(C)(C)C)nnc3c2=O)cccc1C(F)(F)F [Compound 18, 3-(2-tert-butylbenzylthio)-7-(2-methyl-3-(trifluoromethyl)phenyl)-[1,2,4]triazolo[4,3-a]pyrazin-8(7H)-one] |
| 427 nM | O=c1c2nnc(SCc3cc(Cl)cc(Cl)c3)n2ccn1-c1cccc(C(F)(F)F)c1F [Compound 58, 3-(3,5-dichlorobenzylthio)-7-(2-fluoro-3-(trifluoromethyl)phenyl)-[1,2,4]triazolo[4,3-a]pyrazin-8(7H)-one] |
| 15.5 nM | Cc1c(-n2ccn3c(S(=O)(=O)Cc4ccsc4Br)nnc3c2=O)cccc1C(F)(F)F [Compound 125, 3-((2-bromothiophen-3-yl)methylsulfonyl)-7-(2-methyl-3-(trifluoromethyl)phenyl)-[1,2,4]triazolo[4,3-a]pyrazin-8(7H)-one] |
| 553 nM | Cc1c(Cl)cccc1-n1ccn2c(SCc3ccccc3N3CCOCC3)nnc2c1=O [Compound 32, 7-(3-chloro-2-methylphenyl)-3-(2-morpholinobenzylthio)-[1,2,4]triazolo[4,3-a]pyrazin-8(7H)-one] |
| 250 nM | Cc1c(Br)cccc1-n1ccn2c(SCc3ccccc3)nnc2c1=O [Compound 99, 3-(benzylthio)-7-(3-bromo-2-methylphenyl)-[1,2,4]-triazolo[4,3-a]pyrazin-8(7H)-one] |
| 585 nM | Cc1c(Cl)cccc1-n1ccn2c(NCc3ccccc3-c3ccccc3)nnc2c1=O [Compound 166, 3-(biphenyl-2-ylmethylamino)-7-(3-chloro-2-methylphenyl)-[1,2,4]triazolo[4,3-a]pyrazin-8(7H)-one] |
| 3150 nM | Cc1c(Cl)cccc1-n1ccn2c(NCCc3ccccc3)nnc2c1=O [Compound 168, 7-(3-chloro-2-methylphenyl)-3-(phenethylamino)-[1,2,4]triazolo[4,3-a]pyrazin-8(7H)-one] |
| 45.8 nM | Cc1c(-n2ccn3c(S(=O)(=O)Cc4cscc4Br)nnc3c2=O)cccc1C(F)(F)F [Compound 147, 3-((4-bromothiophen-3-yl)methylsulfonyl)-7-(2-methyl-3-(trifluoromethyl)phenyl)-[1,2,4]triazolo[4,3-a]pyrazin-8(7H)-one] |
| 11.8 nM | Cc1c(-n2ccn3c(S(=O)(=O)Cc4ccccc4F)nnc3c2=O)cccc1C(F)(F)F [Compound 120, 3-(2-fluorobenzylsulfonyl)-7-(2-methyl-3-(trifluoromethyl)phenyl)-[1,2,4]triazolo[4,3-a]pyrazin-8(7H)-one] |
| 142 nM | Cc1c(Cl)cccc1-n1ccn2c(SCc3ccccc3Br)nnc2c1=O [Compound 71, 3-(2-bromobenzylthio)-7-(3-chloro-2-methylphenyl)-[1,2,4]triazolo[4,3-a]pyrazin-8(7H)-one] |
| 51.9 nM | Cc1ccc(-c2ccccc2CS(=O)(=O)c2nnc3c(=O)n(-c4cccc(C(F)(F)F)c4C)ccn23)cc1 [Compound 154, 7-(2-methyl-3-(trifluoromethyl)phenyl)-3-((4′-methylbiphenyl-2-yl)methylsulfonyl)-[1,2,4]triazolo[4,3-a]pyrazin-8(7H)-one] |
| 12.3 nM | Cc1c(-n2ccn3c(S(=O)(=O)Cc4cccs4)nnc3c2=O)cccc1C(F)(F)F [Compound 122, 7-(2-methyl-3-(trifluoromethyl)phenyl)-3-(thiophen-2-ylmethylsulfonyl)-[1,2,4]triazolo[4,3-a]pyrazin-8(7H)-one] |
| 503 nM | Cc1c(Cl)cccc1-n1ccn2c(SCc3cccc(OC(F)(F)F)c3)nnc2c1=O [Compound 85, 7-(3-chloro-2-methylphenyI)-3-(3-(trifluoromethoxy)benzylthio)-[1,2,4]triazolo[4,3-a]pyrazin-8(7H)-one] |
| 1130 nM | Cc1c(-n2ccn3c(S(=O)(=O)Cc4cccc5c4-c4ccccc4C5)nnc3c2=O)cccc1C(F)(F)F [Compound 159, 3-((9H-fluoren-4-yl)methylsulfonyl)-7-(2-methyl-3-(trifluoromethyl)phenyl)-[1,2,4]triazolo[4,3-a]pyrazin-8(7H)-one] |
| 112 nM | Cc1c(Cl)cccc1-n1ccn2c(SCc3ccccc3OC(F)(F)F)nnc2c1=O [Compound 70, 7-(3-chloro-2-methylphenyl)-3-(2-(trifluoromethoxy)benzylthio)-[1,2,4]triazolo[4,3-a]pyrazin-8(7H)-one] |
| 544 nM | COc1ccccc1CSc1nnc2c(=O)n(-c3cccc(Cl)c3C)ccn12 [Compound 110, 7-(3-chloro-2-methylphenyl)-3-(2-methoxybenzylthio)-[1,2,4]triazolo[4,3-a]pyrazin-8(7H)-one] |
| 44.2 nM | Cc1c(-n2ccn3c(SCc4ccccc4OC(F)(F)F)nnc3c2=O)cccc1C(F)(F)F [Compound 51, 7-(2-methyl-3-(trifluorornethyl)phenyl)-3-(2-(trifluoromethoxy)benzylthio)-[1,2,4]triazolo[4,3-a]pyrazin-8(7H)-one] |
| 446 nM | Cc1c(Cl)cccc1-n1ccn2c(SCc3cccc(Br)c3)nnc2c1=O [Compound 86, 3-(3-bromobenzylthio)-7-(3-chloro-2-methylphenyl)-[1,2,4]triazolo[4,3-a]pyrazin-8(7H)-one] |
| 30.8 nM | Cc1c(-n2ccn3c(S(=O)(=O)Cc4ccccc4-c4ccc(F)cc4)nnc3c2=O)cccc1C(F)(F)F [Compound 138, 3-((4′-fluorobiphenyl-2-yl)methylsulfonyl)-7-(2-methyl-3-(trifluoromethyl)phenyl)-[1,2,4]triazolo[4,3-a]pyrazin-8(7H)-one] |
| 264 nM | Cc1c(-n2ccn3c(SCc4cccc5c4-c4ccccc4C5)nnc3c2=O)cccc1C(F)(F)F [Compound 4, 3-((9H-fluoren-4-yl)methylthio)-7-(2-methyl-3-(trifluoromethyl)phenyl)-[1,2,4]triazolo[4,3-a]pyrazin-8(7H)-one] |
| 17.7 nM | Cc1c(-n2ccn3c(S(=O)(=O)Cc4ccccc4Br)nnc3c2=O)cccc1C(F)(F)F [Compound 131, 3-(2-bromobenzylsulfonyl)-7-(2-methyl-3-(trifluoromethyl)phenyl)-[1,2,4]triazolo[4,3-a]pyrazin-8(7H)-one] |
| 168 nM | O=c1c2nnc(SCc3cc(Cl)cc(Cl)c3)n2ccn1-c1cccc(Cl)c1Cl [Compound 67, 3-(3,5-dichlorobenzylthio)-7-(2,3-dichlorophenyl)-[1,2,4]triazolo[4,3-a]pyrazin-8(7H)-one] |
| 636 nM | Cc1c(Cl)cccc1-n1ccn2c(SCc3ccccc3CN3CCOCC3)nnc2c1=O [Compound 39, 7-(3-chloro-2-methylphenyl)-3-(2-(rnorpholinornethyl)benzylthio)-[1,2,4]triazolo[4,3-a]pyrazin-8(7H)-one] |
| 84.9 nM | [2H]c1c([2H])c([2H])c(CSc2nnc3c(=O)n(-c4cccc(C(F)(F)F)c4C)ccn23)c([2H])c1[2H] [Compound 21, deuterated-7-[2-methyl-3-(trifluoromethyl)phenyl]-3-[(phenyl-(d5)-methy)thio]-1,2,4-triazolo[4,3-a]pyrazin-8(7H)-one] |

Reference: patent US20130196986A1 (priority 2010, published 2013)
